Legend:
Type in all cases: ADME, organism-based
Conditions in all cases: in vivo
[1] = Cmax in Wistar Han rat at 3 mg/kg, po measured after 24 hours by UPLC-MS/MS analysis; set-up: route oral, dose 3 mg/kg, time 24 hrs
[2] = Tmax in Wistar Han rat at 3 mg/kg, po measured after 24 hours by UPLC-MS/MS analysis
[3] = Half life in Wistar Han rat at 3 mg/kg, po measured after 24 hours by UPLC-MS/MS analysis
[4] = Oral bioavailability in Wistar Han rat at 3 mg/kg measured after 24 hours by UPLC-MS/MS analysis

Row | Cmax [1] [ng/mL] | Tmax [2] [h] | half-life [3] [h] | bioavailability [4] [%] | SMILES
1 | 1830 | 2 | 2.9 | 36 | Cc1cc(OCCCS(C)(=O)=O)cc(C)c1-c1cccc(COc2ccc3c(c2)OC[C@H]3CC(=O)O)c1
2 | 1700 | 1 | 1.41 | 65 | CC#C[C@@H](CC(=O)O)c1ccc(OCC(C)=C(C)C)cc1

Reference: ChEMBL document CHEMBL5036343, “Discovery and development of CPL207280 as new GPR40/FFA1 agonist” (Eur J Med Chem, 2021)
